system: rat small-intestinal brush border membrane vesicles; assay: Inhibitory effect on 33PO4 uptake into rat small-intestinal brush border membrane vesicles (rapid filtration method); assay type: biochemical, Wistar female rat; conditions: 1 µM test compound; 33PO4 uptake into rat small-intestinal BBMVs, 60 seconds
Outline: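 33PO4 uptake into rat small-intestinal brush border membrane vesicles measured by rapid filtration. Reactions were stopped with ice-cold buffer (110 mM NaCl, 1 mM KH2PO4, 10 mM HEPES pH 7.5), filtered and washed. Vesicle-associated radioactivity was counted by liquid scintillation.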

SMILES | Rate of uptake inhibition (%) (1 µM)
CN1N(Cc2ccc(OCCN3CCOCC3(C)C)c(F)c2F)C(=O)C(C(=O)Nc2ccc(C(F)(F)F)cc2-c2cc(C(F)(F)F)ncn2)=C(O)C12CCC2 [Example 341] | 64%
CN1N(Cc2ccc(OCCN3CCOC(C)(C)C3)c(F)c2F)C(=O)C(C(=O)Nc2ccc(C(F)(F)F)cc2-c2cc(C(F)(F)F)ncn2)=C(O)C12CCC2 [Example 342] | 43%
C[C@H]1COC[C@H](C)N1CCOc1ccc(CN2C(=O)C(C(=O)Nc3ccc(C(F)(F)F)cc3-c3cc(C(F)(F)F)ncn3)=C(O)C3(CCC3)N2C)c(F)c1F [Example 343] | 68%
C[C@@H]1COC[C@H](C)N1CCOc1ccc(CN2C(=O)C(C(=O)Nc3ccc(C(F)(F)F)cc3-c3cc(C(F)(F)F)ncn3)=C(O)C3(CCC3)N2C)c(F)c1F [Example 344] | 58%
COC(=O)CN(C)CCOc1ccc(CN2C(=O)C(C(=O)Nc3ccc(C(F)(F)F)cc3-c3cc(C(F)(F)F)ncn3)=C(O)C3(CCC3)N2C)c(F)c1F [Example 346] | 42%
CN(CCO)CCOc1ccc(CN2C(=O)C(C(=O)Nc3ccc(C(F)(F)F)cc3-c3cc(C(F)(F)F)ncn3)=C(O)C3(CCC3)N2C)c(F)c1F [Example 347] | 28%
COCCN(CCOC)CCOc1ccc(CN2C(=O)C(C(=O)Nc3ccc(C(F)(F)F)cc3-c3cc(C(F)(F)F)ncn3)=C(O)C3(CCC3)N2C)c(F)c1F [Example 348] | 31%
COCC(C)(C)N(C)CCOc1ccc(CN2C(=O)C(C(=O)Nc3ccc(C(F)(F)F)cc3-c3cc(C(F)(F)F)ncn3)=C(O)C3(CCC3)N2C)c(F)c1F [Example 349] | 55%
COC(C)(C)CN(C)CCOc1ccc(CN2C(=O)C(C(=O)Nc3ccc(C(F)(F)F)cc3-c3cc(C(F)(F)F)ncn3)=C(O)C3(CCC3)N2C)c(F)c1F [Example 350] | 45%
CN1N(Cc2ccc(OCCN(CCO)CCO)c(F)c2F)C(=O)C(C(=O)Nc2ccc(C(F)(F)F)cc2-c2cc(C(F)(F)F)ncn2)=C(O)C12CCC2 [Example 351] | 22%
CN1N(Cc2ccc(OCCn3cncn3)c(F)c2F)C(=O)C(C(=O)Nc2ccc(C(F)(F)F)cc2-c2cc(C(F)(F)F)ncn2)=C(O)C12CCC2 [Example 352] | 27%
CC(=O)NCCN(C)CCOc1ccc(CN2C(=O)C(C(=O)Nc3ccc(C(F)(F)F)cc3-c3cc(C(F)(F)F)ncn3)=C(O)C3(CCC3)N2C)c(F)c1F [Example 353] | 26%
CC(=O)N(C)CCN(C)CCOc1ccc(CN2C(=O)C(C(=O)Nc3ccc(C(F)(F)F)cc3-c3cc(C(F)(F)F)ncn3)=C(O)C3(CCC3)N2C)c(F)c1F [Example 354] | 31%
COC(=O)[C@@H]1CCCN1CCOc1ccc(CN2C(=O)C(C(=O)Nc3ccc(C(F)(F)F)cc3-c3cc(C(F)(F)F)ncn3)=C(O)C3(CCC3)N2C)c(F)c1F [Example 355] | 36%
COC1(C)CN(CCOc2ccc(CN3C(=O)C(C(=O)Nc4ccc(C(F)(F)F)cc4-c4cc(C(F)(F)F)ncn4)=C(O)C4(CCC4)N3C)c(F)c2F)C1 [Example 356] | 58%
CSC1CN(CCOc2ccc(CN3C(=O)C(C(=O)Nc4ccc(C(F)(F)F)cc4-c4cc(C(F)(F)F)ncn4)=C(O)C4(CCC4)N3C)c(F)c2F)C1 [Example 357] | 45%
CN1N(Cc2ccc(OCCN3CCC(N4CCOCC4)CC3)c(F)c2F)C(=O)C(C(=O)Nc2ccc(C(F)(F)F)cc2-c2cc(C(F)(F)F)ncn2)=C(O)C12CCC2 [Example 358] | 34%
CN1CCN(CCOc2ccc(CN3C(=O)C(C(=O)Nc4ccc(C(F)(F)F)cc4-c4cc(C(F)(F)F)ncn4)=C(O)C4(CCC4)N3C)c(F)c2F)CC1=O [Example 359] | 37%
CN1N(Cc2ccc(OCCN3CCN(CCO)CC3)c(F)c2F)C(=O)C(C(=O)Nc2ccc(C(F)(F)F)cc2-c2cc(C(F)(F)F)ncn2)=C(O)C12CCC2 [Example 360] | 21%
CN1N(Cc2ccc(OCCN3CCN(CCOCCO)CC3)c(F)c2F)C(=O)C(C(=O)Nc2ccc(C(F)(F)F)cc2-c2cc(C(F)(F)F)ncn2)=C(O)C12CCC2 [Example 361] | 20%
CN1N(Cc2ccc(OCCN3CCN(CCCO)CC3)c(F)c2F)C(=O)C(C(=O)Nc2ccc(C(F)(F)F)cc2-c2cc(C(F)(F)F)ncn2)=C(O)C12CCC2 [Example 362] | 17%

SMILES | Rate of uptake inhibition (%) (1 µM)
CN1N(Cc2ccc(OCCN3CCN(S(C)(=O)=O)CC3)c(F)c2F)C(=O)C(C(=O)Nc2ccc(C(F)(F)F)cc2-c2cc(C(F)(F)F)ncn2)=C(O)C12CCC2 [Example 363] | 11%
CN(C)C(=O)N1CCN(CCOc2ccc(CN3C(=O)C(C(=O)Nc4ccc(C(F)(F)F)cc4-c4cc(C(F)(F)F)ncn4)=C(O)C4(CCC4)N3C)c(F)c2F)CC1 [Example 364] | 36%
CN(CCOc1ccc(CN2C(=O)C(C(=O)Nc3ccc(C(F)(F)F)cc3-c3cc(C(F)(F)F)ncn3)=C(O)C3(CCCC3)N2C)c(F)c1F)C1CCOCC1 [Example 365] | 34%
CN(CCOc1ccc(CN2C(=O)C(C(=O)Nc3ccc(C(F)(F)F)cc3-c3cc(C(F)(F)F)ncn3)=C(O)C3(CCCC3)N2C)c(F)c1F)C1CCOC1 (stereo not drawn) [Example 366] | 38%
CN1N(Cc2ccc(OCCN3C4CCC3COC4)c(F)c2F)C(=O)C(C(=O)Nc2ccc(C(F)(F)F)cc2-c2cc(C(F)(F)F)ncn2)=C(O)C12CCCC2 [Example 367] | 43%
COC(=O)CN(C)CCOc1ccc(CN2C(=O)C(C(=O)Nc3ccc(C(F)(F)F)cc3-c3cc(C(F)(F)F)ncn3)=C(O)C3(CCCC3)N2C)c(F)c1F [Example 368] | 26%
CN1N(Cc2ccc(OCCN3CC(F)(F)C3)c(F)c2F)C(=O)C(C(=O)Nc2ccc(C(F)(F)F)cc2-c2cc(C(F)(F)F)ncn2)=C(O)C12CCCC2 [Example 369] | 43%
C[C@@H]1COC[C@H](C)N1CCOc1ccc(CN2C(=O)C(C(=O)Nc3ccc(C(F)(F)F)cc3-c3cc(C(F)(F)F)ncn3)=C(O)C3(CCCC3)N2C)c(F)c1F [Example 370] | 41%
CN1N(Cc2ccc(OCCN3CCOCC3(C)C)c(F)c2F)C(=O)C(C(=O)Nc2ccc(C(F)(F)F)cc2-c2cc(C(F)(F)F)ncn2)=C(O)C12CCCC2 [Example 371] | 38%
COCC(C)(C)N(C)CCOc1ccc(CN2C(=O)C(C(=O)Nc3ccc(C(F)(F)F)cc3-c3cc(C(F)(F)F)ncn3)=C(O)C3(CCCC3)N2C)c(F)c1F [Example 372] | 38%
CN(CCO)CCOc1ccc(CN2C(=O)C(C(=O)Nc3ccc(C(F)(F)F)cc3-c3cc(C(F)(F)F)ncn3)=C(O)C3(CCCC3)N2C)c(F)c1F [Example 373] | 27%
CN1N(Cc2ccc(OCCN3CCC(N4CCOCC4)CC3)c(F)c2F)C(=O)C(C(=O)Nc2ccc(C(F)(F)F)cc2-c2cc(C(F)(F)F)ncn2)=C(O)C12CCCC2 [Example 374] | 42%
COC[C@@H]1CCCN1CCOc1ccc(CN2C(=O)C(C(=O)Nc3ccc(C(F)(F)F)cc3-c3cc(C(F)(F)F)ncn3)=C(O)C3(CCCC3)N2C)c(F)c1F [Example 375] | 31%
CN1N(Cc2ccc(OCCN3CCN(CCO)CC3)c(F)c2F)C(=O)C(C(=O)Nc2ccc(C(F)(F)F)cc2-c2cc(C(F)(F)F)ncn2)=C(O)C12CCCC2 [Example 376] | 33%
COCCN1CCN(CCOc2ccc(CN3C(=O)C(C(=O)Nc4ccc(C(F)(F)F)cc4-c4cc(C(F)(F)F)ncn4)=C(O)C4(CCCC4)N3C)c(F)c2F)CC1 [Example 377] | 29%
CN1N(Cc2ccc(OCCN3CCN(CCOCCO)CC3)c(F)c2F)C(=O)C(C(=O)Nc2ccc(C(F)(F)F)cc2-c2cc(C(F)(F)F)ncn2)=C(O)C12CCCC2 [Example 378] | 35%
CN1N(Cc2ccc(OCCN3CCN(S(C)(=O)=O)CC3)c(F)c2F)C(=O)C(C(=O)Nc2ccc(C(F)(F)F)cc2-c2cc(C(F)(F)F)ncn2)=C(O)C12CCCC2 [Example 379] | 137%
CN1N(Cc2ccc(OCCN3[C@@H]4COC[C@H]3C4)c(F)c2F)C(=O)C(C(=O)Nc2ccc(C(F)(F)F)cc2-c2cc(C(F)(F)F)ncn2)=C(O)C12CCCC2 [Example 380] | 43%
CN1N(Cc2ccc(OCCN[C@@H](CC(=O)O)C(=O)O)c(F)c2F)C(=O)C(C(=O)Nc2ccc(C(F)(F)F)cc2-c2cc(C(F)(F)F)ncn2)=C(O)C12CCCC2 [Example 381, (2S)-2-[2-[2,3-Difluoro-4-[[10-hydroxy-6-methyl-8-oxo-9-[[4-(trifluoromethyl)-2-[6-(-trifluoromethyl)pyrimidin-4-yl]phenyl]carbamoyl]-6,7-diazaspiro[4.5]dec-9-en-7-yl]methyl]phenoxy]ethylamino]butanedioate] | 28%
CN1N(Cc2ccc(OCCNC(CC(=O)O)CC(=O)O)c(F)c2F)C(=O)C(C(=O)Nc2ccc(C(F)(F)F)cc2-c2cc(C(F)(F)F)ncn2)=C(O)C12CCCC2 [Example 382, 3-[2-[2,3-Difluoro-4-[[10-hydroxy-6-methyl-8-oxo-9-[[4-(trifluoromethyl)-2-[6-(trifluoromethyl)pyrimidin-4-yl]phenyl]carbamoyl]-6,7-diazaspiro[4.5]dec-9-en-7-yl]methyl]phenoxy]ethylamino]pentanedioate] | 21%
CN1N(Cc2ccc(OCCCOC[C@H](O)CO)c(F)c2F)C(=O)C(C(=O)Nc2ccc(C(F)(F)F)cc2-c2ccc(C(F)(F)F)nc2)=C(O)C12CCC2 [Example 383, 6-[[4-[3-[(2R)-2,3-Dihydroxypropoxy]propoxy]-2,3-difluorophenyl]methyl]-9-hydroxy-5-methyl-7-oxo-N-[4-(trifluoromethyl)-2-[6-(trifluoromethyl)pyrydin-3-yl]phenyl]-5,6-diazaspiro[3.5]non-8-ene-8-carboxamide] | 126%

Reference: EP2975030B1, “DIHYDROPYRIDAZINE-3,5-DIONE DERIVATIVE” (Chugai Seiyaku Kabushiki Kaisha, priority 2013, dated 2014)
